Like-named read-outs stand apart in the source and are kept apart here.
Tests used:
RSV sF = experiment: Serum F-specific IgA ELISA, 1x RSV seropositive BALB/c mice; format: in vivo; details: Day 14; RSV sF at 10 μg, RSV sF+GLA-SE at any of the 3 doses
Protocol: Serology readouts were made at Days 0, 14, 28, 42, 56, and 73 for each group. Animals were lightly anesthetized with isoflurane and bled intraorbitally. Serum was separated and stored at −20° C. and thawed for testing. Total anti-F IgG were measured at each timepoint, with anti-F IgG1 and anti-F IgG2a ELISA endpoint dilution titers measured at Day 0 and Day 42. RSV neutralization titer was determined by a RSV A2-GFP microneutralization assay. The polyclonal nature of the anti-F IgG response was evaluated on Day 42 by competition ELISA with site-specific monoclonal antibodies to RSV-F. Anti-F IgA endpoint dilution titers were measured at Day 14 for each group.

RSV sF protein [1] = experiment: IFNγ ELISPOT of splenocytes, naive Sprague Dawley rats; format: in vivo; details: Day 46, 4 days post RSV challenge
Protocol: Systemic cellular immune responses to vaccination were evaluated in all available animals at Day 46, 4 days post RSV challenge. For each of the groups, individual splenocyte samples were prepared. T-cell readouts were assessed by ELISPOT counts of IFNγ-secreting cells following a 36-48 hour restimulation with RSV sF. Significance was calculated using GraphPad Prism 1-way ANOVA with either Tukey or Bonferroni post test with a significance cutoff of p<0.05.

[2] = tested on: RSV-F MHC I and MHC II restricted peptides; experiment: IFNγ ELISPOT of splenocytes, naive BALB/c mice; format: in vivo; details: Day 32, 4 days post challenge, MHC I F peptide
[3] = tested on: RSV-F-derived MHC I restricted peptide; experiment: Granzyme B ELISPOT of splenocytes, naive BALB/c mice; format: in vivo; details: splenocytes 4 days post challenge
Text: FIGS. 1A-F are graphs showing immune responses to adjuvanted RSV sF vaccines in naïve BALB/c mice. Mice (N=7 per group) were immunized at days 0 and 14 with the indicated vaccines and challenged with 6 log10 PFU of RSV at day 28. Representative data shown from 1 of 2 experiments run with all groups. (A) Lung Viral Titers. Residual virus in the lungs of animals 4 days post challenge was quantified by plaque assay. Individual results are presented in log10, along with a bar representing the group geometric mean. Individuals with undetectable titers were scored at the assay limit of detection (LOD), ˜1.4 log10. (B) Serum RSV-GFP Neutralizing Titers. […] Individuals with undetectable titers were scored at the assay limit of detection (LOD) of 3.3 log2, indicated by a dashed line. […] Shown are the specific IFNγ, IL-5, IL-13, and IL-17 responses to an immunodominant MHC II restricted RSV-F peptide pool calculated by subtracting media control values from test values in multiplexed cytokine analysis. […] Day 28 sera (n=7 per group) were evaluated for F-specific IgG1 and IgG2a isotypes by endpoint titer ELISA. […]
Th1-type responses to a vaccine such as those seen with RSV sF+GLA-SE may support the development of strong CD8 T cell responses. […] To evaluate the cytolytic potential of these responding cells, we evaluated F-specific Granzyme B secretion by ELISPOT.

RSV sF protein [4] = tested on: RSV sF protein

RSV sF: RSV soluble F protein, amino acids 1-524 of the RSV A2 F sequence lacking the transmembrane domain, given without adjuvant
serum F-specific IgA titers versus seropositive animals vaccinated with PBS (RSV sF): significantly higher serum F-specific IgA titers
F-specific IFNγ ELISPOT responses (RSV sF protein [1]; 10 μg RSV sF): 64.00 SFU/million cells
F-specific IFNγ ELISPOT responses (RSV sF protein [1]; 100 μg RSV sF): 87.78 SFU/million cells
F-specific CD8 IFNγ ELISPOT [2]: ~30 spot forming units (SFU)/million cells
F-specific Granzyme B ELISPOT responses (mean) [3]: 18
animals with ≧4-fold rise in IgG titers at Day 183 compared to Day 169 (RSV sF protein [4]; 4 animals per group): 2 of 4
geomean anti-F IgG titer (RSV sF protein [4]; Day 42, 100 μg RSV sF at days 0 and 28): 10.45±2.68 log 2
geomean anti-F IgG titer (RSV sF protein [4]; Day 183, 14 days post booster at Day 169): 12.55±2.16 log 2

Source: US20160144021A1, “Vaccine Composition And Method Of Use” (MEDIMMUNE, LLC, priority 2013, published 2016)
